Experiment [1] deals with T1, full length Keap1 protein / full length NRF2 protein (Homo sapiens, UniProt Q14145).
T1 construct: full length NRF2 protein and full length Keap1 protein (Keap1 exists a dimer) are used; His
In words: NRF2-Keap1 TR-FRET Low Protein Assay. The following applies: 1.25 nM Keap1 FlagHis and 2.5 nM biotin-NRF2 added. The class given is binding. Summed up: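 Flag-tagged full-length Keap1 was preincubated with compound (3-fold series) for 2.25 h at 37 °C in Tris pH 8.0/MgCl2/NaCl/BSA/DTT/CHAPS. Biotin-Avi-NRF2 (added at 2.5 nM) was then bound for 1.25 h at 4 °C. Eu-streptavidin/anti-Flag-APC TR-FRET (665/615 nm) was read after 1 h at RT, and pIC50 came from a four-parameter fit.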

The target of experiment [2] is T2, Keap1 Kelch domain (321-609) / TAMRA-labeled 16mer NRF2 peptide (ETGE motif) (Homo sapiens, UniProt Q14145).
T2 construct: the Kelch domain (321-609) of Keap1 is used
T2 sequence (Q14145 321-609): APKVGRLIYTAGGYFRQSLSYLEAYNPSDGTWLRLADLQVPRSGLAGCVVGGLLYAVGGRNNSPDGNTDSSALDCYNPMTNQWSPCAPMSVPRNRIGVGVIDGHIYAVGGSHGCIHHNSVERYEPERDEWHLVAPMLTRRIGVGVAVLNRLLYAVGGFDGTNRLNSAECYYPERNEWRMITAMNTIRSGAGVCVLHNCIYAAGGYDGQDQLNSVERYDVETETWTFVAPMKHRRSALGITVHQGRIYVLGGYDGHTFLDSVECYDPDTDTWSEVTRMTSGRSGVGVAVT
In words: NRF2-Keap1 FP Assay (Keap1 Kelch fluorescence polarization). Format: binding. To be noted: 20 nM Keap1 (321-609), 8 nM Tamra labeled peptide. The essentials:
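Compound dilutions (3-fold) were incubated 1 hr at room temperature with 20 nM Keap1 Kelch (321-609) and 8 nM TAMRA-labeled ETGE 16mer peptide. Buffer was 50 mM Tris pH 8.0, 100 mM NaCl, 5 mM MgCl2, 1 mM DTT, 2 mM CHAPS, 0.005% BSA. Fluorescence polarization (mP) was normalized to controls and fitted with a four-parameter equation to give pIC50.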
For orientation: In fluorescence polarisation assays a small probe gives low polarisation when free and higher when bound to something large.

As a reminder, the IC50 is the midpoint of a concentration-inhibition curve. Low values mean greater potency, high ones weaker potency.

T1 sequence (Q14145 whole entry): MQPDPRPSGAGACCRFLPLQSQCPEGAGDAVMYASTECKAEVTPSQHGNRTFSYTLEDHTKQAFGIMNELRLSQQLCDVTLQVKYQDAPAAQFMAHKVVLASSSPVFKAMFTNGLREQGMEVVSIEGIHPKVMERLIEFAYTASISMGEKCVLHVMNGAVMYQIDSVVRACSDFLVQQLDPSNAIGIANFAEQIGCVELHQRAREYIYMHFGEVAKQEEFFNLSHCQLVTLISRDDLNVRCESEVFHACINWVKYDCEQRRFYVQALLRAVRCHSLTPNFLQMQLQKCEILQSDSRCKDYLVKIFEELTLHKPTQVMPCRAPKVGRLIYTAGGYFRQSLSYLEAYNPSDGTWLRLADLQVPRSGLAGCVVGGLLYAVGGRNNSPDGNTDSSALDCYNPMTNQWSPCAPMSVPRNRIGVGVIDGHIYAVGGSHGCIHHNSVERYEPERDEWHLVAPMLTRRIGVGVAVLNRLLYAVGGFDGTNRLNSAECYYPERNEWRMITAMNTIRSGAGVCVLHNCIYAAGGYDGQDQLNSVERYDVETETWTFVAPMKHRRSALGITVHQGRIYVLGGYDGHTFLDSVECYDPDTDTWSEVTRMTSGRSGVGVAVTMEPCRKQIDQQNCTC

As to `CCC[C@@H]1CO[C@@H](C)CN1C(=O)c1cccc(-c2cccc(-n3ncc(C(=O)O)c3C3CC3)c2)c1F` [Example 45, 5-cyclopropyl-1-(3-{2-fluoro-3-[(2S,5R)-2-methyl-5-propylmorpholine-4-carbonyl]phenyl}phenyl)-1H-pyrazole-4-carboxylic Acid], the IC50 in experiment [1] and in experiment [2] was 10 to 100 nM each time.
For `CC1CC(C)CN(C(=O)c2cccc(-c3cccc(-n4ncc(C(=O)O)c4C4CC4)c3)c2F)C1` (centres unmarked) [Example 53, 5-Cyclopropyl-1-[3′-(3,5-dimethyl-piperidine-1-carbonyl)-2′-fluoro-biphenyl-3-yl]-1H-pyrazole-4-carboxylic Acid], the half-maximal inhibitory concentration (IC50) in experiment [1] and in experiment [2] was 10 to 100 nM in each case.
Take `CCC[C@@H]1CCCCN1C(=O)c1cccc(-c2cccc(-n3ncc(C(=O)O)c3C3CC3)c2)c1F` [Example 54e, 5-Cyclopropyl-1-{3-[2-fluoro-3-((2-S)-2-propylpiperidine-1-carbonyl)phenyl]phenyl}-1H-pyrazole-4-carboxylic Acid]: the IC50 in experiment [1] and in experiment [2] was 100 to 1000 nM throughout.
For `CCC[C@@H]1CCCCN1C(=O)c1cccc(-c2cccc(-n3ncc(C(=O)O)c3CCc3cn(C)nn3)c2)c1F` [Example 55, (R)-1-(2′-Fluoro-3′-(2-propylpiperidine-1-carbonyl)-[1,1′-biphenyl]-3-yl)-5-(2-(1-methyl-1H-1,2,3-triazol-4-yl)ethyl)-1H-pyrazole-4-carboxylic Acid], the IC50 in experiment [1] and in experiment [2] was 10 to 100 nM each time.
Consider `CC(C)Oc1cccc(-c2cccc(-n3ncc(C(=O)O)c3C3CC3c3cn(C)nn3)c2)c1` (centres unmarked) [Example 59, 1-(3′-Isopropoxy-[1,1′-biphenyl]-3-yl)-5-(2-(1-methyl-1H-1,2,3-triazol-4-yl)cyclopropyl)-1H-pyrazole-4-carboxylic Acid], for which the IC50 in experiment [1] and in experiment [2] was 100 to 1000 nM throughout.
Take `CC1(C)CCc2cnn(-c3cccc(-c4cccc(-n5ncc(C(=O)O)c5C5CC5)c4)c3)c21` [Example 63, 5-Cyclopropyl-1-(3′-(6,6-dimethyl-5,6-dihydrocyclopenta[c]pyrazol-1(4H)-yl)-[1,1′-biphenyl]-3-yl)-1H-pyrazole-4-carboxylic Acid]: the half-inhibitory concentration (IC50) in experiment [1] lay in the range of 10 to 100 nM; in experiment [2] it was 100 to 1000 nM.
As to `CC1(C)CCc2cnn(-c3cccc(-c4cccc(-n5ncc(C(=O)O)c5C(F)(F)F)c4)c3)c21` [Example 250, 1-(3′-(6,6-Dimethyl-5,6-dihydrocyclopenta[c]pyrazol-1(4H)-yl)-[1,1′-biphenyl]-3-yl)-5-(trifluoromethyl)-1H-pyrazole-4-carboxylic Acid], the IC50 in experiment [1] and in experiment [2] was 100 to 1000 nM throughout.
As to `C[C@@H]1CN(Cc2cccc(-c3cccc(-n4ncc(C(=O)O)c4[C@@H]4C[C@H]4c4cn(C)nn4)c3)c2)Cc2ccccc2O1` [Example 253], the IC50 in experiment [1] was under 10 nM; in experiment [2] it was 10 to 100 nM.
On the same counts, the results for `CCOC[C@@H]1CCCN1C(=O)c1cccc(-c2cccc(-n3ncc(C(=O)O)c3[C@@H]3C[C@H]3c3cn(C)nn3)c2)c1F` [Example 267] are under 10 nM and 10 to 100 nM.
In the case of `CCOC[C@H]1CCCN1C(=O)c1cccc(-c2cccc(-n3ncc(C(=O)O)c3[C@@H]3C[C@H]3c3cn(C)nn3)c2)c1F` [Example 268], the figures for the concentration for half-maximal inhibition (IC50) in experiment [1] and in experiment [2] were under 10 nM and 10 to 100 nM, respectively.

For the origin of these results see patent publication US10364256B2 (GlaxoSmithKline Intellectual Property Development Limited, priority 2015, dated 2019).
